# From US6358885B1, “Substituted phenylheterocyclic herbicides” (Mississippi State University, priority 1992, dated 2002)
# What was measured:
# Experiment in all cases: Test B preemergence/postemergence greenhouse plant response rating 0 to 10
# giant foxtail = type: in vivo, Setaria faberii; settings: for Plant response rating, Giant foxtail: 0 to 10 scale
# Summary of the method: (§1)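 Test chemicals were sprayed onto freshly planted seed and, concurrently, onto young plants between the one and four leaf stage. After a twelve- to sixteen-day greenhouse period, each species was visually compared with untreated controls.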
# cocklebur = type: in vivo, Xanthium pensylvanicum; settings: for Plant response rating, Cocklebur: 0 to 10 scale
# Summary of the method: as §1
# cheatgrass = type: in vivo, Bromus secalinus; settings: for Plant response rating, Cheatgrass: 0 to 10 scale
# Summary of the method: as §1
# wheat = type: in vivo, Triticum aestivum; settings: for Plant response rating, Wheat: 0 to 10 scale
# Summary of the method: as §1
# purple nutsedge = type: in vivo, Cyperus rotundus; settings: for Plant response rating, Nutsedge: 0 to 10 scale
# Summary of the method: as §1
# barnyardgrass = type: in vivo, Echinochloa crus-galli; settings: for Plant response rating, Barnyardgrass: 0 to 10 scale
# Summary of the method: as §1
# cotton = type: in vivo, Gossypium hirsutum; settings: for Plant response rating, Cotton: 0 to 10 scale
# Summary of the method: as §1
# sorghum = type: in vivo, Sorghum bicolor; settings: for Plant response rating, Sorghum: 0 to 10 scale
# Summary of the method: as §1
# chickweed = type: in vivo, Stellaria media; settings: for Plant response rating, Chickweed: 0 to 10 scale
# Summary of the method: as §1
# crabgrass = type: in vivo, Digitaria spp.; settings: for Plant response rating, Crabgrass: 0 to 10 scale
# Summary of the method: as §1
# lambsquarters = type: in vivo, Chenopodium album; settings: for Plant response rating, Lambsquarter: 0 to 10 scale
# Summary of the method: as §1
# corn = type: in vivo, Zea mays; settings: for Plant response rating, Corn: 0 to 10 scale
# Summary of the method: as §1
# barley = type: in vivo, Hordeum vulgare; settings: for Plant response rating, Barley: 0 to 10 scale
# Summary of the method: as §1
# rice = type: in vivo, Oryza sativa; settings: for Plant response rating, Rice: 0 to 10 scale
# Summary of the method: as §1
# rape = type: in vivo, Brassica napus; settings: for Plant response rating, Rape: 0 to 10 scale
# Summary of the method: as §1
# velvetleaf = type: in vivo, Abutilon theophrasti; settings: for Plant response rating, Velvetleaf: 0 to 10 scale
# Summary of the method: as §1
# soybean = type: in vivo, Glycine max; settings: for Plant response rating, Soybean: 0 to 10 scale
# Summary of the method: as §1
# sugar beet = type: in vivo, Beta vulgaris; settings: for Plant response rating, Sugar beet: 0 to 10 scale
# Summary of the method: as §1
# wild buckwheat = type: in vivo, Polygonum convolvulus; settings: for Plant response rating, Wild buckwheat: 0 to 10 scale
# Summary of the method: as §1
# bedstraw = type: in vivo, Galium aparine; settings: for Plant response rating, Bedstraw: 0 to 10 scale
# Summary of the method: as §1
# blackgrass = type: in vivo, Alopecurus myosuroides; settings: for Plant response rating, Blackgrass: 0 to 10 scale
# Summary of the method: as §1
# wild oat = type: in vivo, Avena fatua; settings: for Plant response rating, Wild oat: 0 to 10 scale
# Summary of the method: as §1
# morningglory = type: in vivo, Ipomoea hederacea; settings: for Plant response rating, Morningglory: 0 to 10 scale
# Summary of the method: as §1
smiles,measurement,setting,value
CCOC(=O)c1cc(-c2nn3c(c2Cl)CCCC3)c(F)cc1Cl [Compound 78],"Plant response rating, Giant foxtail","giant foxtail; POSTEMERGENCE, Rate 50 g/ha",4
same,"Plant response rating, Giant foxtail","giant foxtail; PREEMERGENCE, Rate 50 g/ha",2
same,"Plant response rating (0 to 10 scale), Giant foxtail","giant foxtail; PREEMERGENCE, Rate 200 g/ha",9
same,"Plant response rating, Giant foxtail","giant foxtail; Rate 200 g/ha, POSTEMERGENCE",6
same,"Plant response rating, Cocklebur","cocklebur; POSTEMERGENCE, Rate 50 g/ha",8
same,"Plant response rating, Cocklebur","cocklebur; PREEMERGENCE, Rate 50 g/ha",0
same,"Plant response rating (0 to 10 scale), Cocklebur","cocklebur; PREEMERGENCE, Rate 200 g/ha",0
same,"Plant response rating, Cocklebur","cocklebur; Rate 200 g/ha, POSTEMERGENCE",10
same,"Plant response rating, Cheatgrass","cheatgrass; POSTEMERGENCE, Rate 50 g/ha",2
same,"Plant response rating, Cheatgrass","cheatgrass; PREEMERGENCE, Rate 50 g/ha",2
same,"Plant response rating (0 to 10 scale), Cheatgrass","cheatgrass; PREEMERGENCE, Rate 200 g/ha",4
same,"Plant response rating, Cheatgrass","cheatgrass; Rate 200 g/ha, POSTEMERGENCE",7
same,"Plant response rating, Wheat","wheat; PREEMERGENCE, Rate 50 g/ha",3
same,"Plant response rating (0 to 10 scale), Wheat","wheat; PREEMERGENCE, Rate 200 g/ha",4
same,"Plant response rating, Wheat","wheat; Rate 200 g/ha, POSTEMERGENCE",7
same,"Plant response rating, Nutsedge","purple nutsedge; POSTEMERGENCE, Rate 50 g/ha",1
same,"Plant response rating, Nutsedge","purple nutsedge; PREEMERGENCE, Rate 50 g/ha",0
same,"Plant response rating (0 to 10 scale), Nutsedge","purple nutsedge; PREEMERGENCE, Rate 200 g/ha",0
same,"Plant response rating, Nutsedge","purple nutsedge; Rate 200 g/ha, POSTEMERGENCE",2
same,"Plant response rating, Barnyardgrass","barnyardgrass; POSTEMERGENCE, Rate 50 g/ha",8
same,"Plant response rating, Barnyardgrass","barnyardgrass; PREEMERGENCE, Rate 50 g/ha",2
same,"Plant response rating (0 to 10 scale), Barnyardgrass","barnyardgrass; PREEMERGENCE, Rate 200 g/ha",6
same,"Plant response rating, Barnyardgrass","barnyardgrass; Rate 200 g/ha, POSTEMERGENCE",9
same,"Plant response rating, Cotton","cotton; POSTEMERGENCE, Rate 50 g/ha",9
same,"Plant response rating, Cotton","cotton; PREEMERGENCE, Rate 50 g/ha",0
same,"Plant response rating (0 to 10 scale), Cotton","cotton; PREEMERGENCE, Rate 200 g/ha",2
same,"Plant response rating, Cotton","cotton; Rate 200 g/ha, POSTEMERGENCE",10
same,"Plant response rating, Sorghum","sorghum; POSTEMERGENCE, Rate 50 g/ha",4
same,"Plant response rating, Sorghum","sorghum; PREEMERGENCE, Rate 50 g/ha",0
same,"Plant response rating (0 to 10 scale), Sorghum","sorghum; PREEMERGENCE, Rate 200 g/ha",3
same,"Plant response rating, Sorghum","sorghum; Rate 200 g/ha, POSTEMERGENCE",7
same,"Plant response rating, Chickweed","chickweed; POSTEMERGENCE, Rate 50 g/ha",6
same,"Plant response rating, Chickweed","chickweed; PREEMERGENCE, Rate 50 g/ha",6
same,"Plant response rating (0 to 10 scale), Chickweed","chickweed; PREEMERGENCE, Rate 200 g/ha",8
same,"Plant response rating, Chickweed","chickweed; Rate 200 g/ha, POSTEMERGENCE",10
same,"Plant response rating, Crabgrass","crabgrass; POSTEMERGENCE, Rate 50 g/ha",4
same,"Plant response rating, Crabgrass","crabgrass; PREEMERGENCE, Rate 50 g/ha",2
same,"Plant response rating (0 to 10 scale), Crabgrass","crabgrass; PREEMERGENCE, Rate 200 g/ha",8
same,"Plant response rating, Crabgrass","crabgrass; Rate 200 g/ha, POSTEMERGENCE",5
same,"Plant response rating, Lambsquarter","lambsquarters; POSTEMERGENCE, Rate 50 g/ha",10
same,"Plant response rating, Lambsquarter","lambsquarters; PREEMERGENCE, Rate 50 g/ha",10
same,"Plant response rating (0 to 10 scale), Lambsquarter","lambsquarters; PREEMERGENCE, Rate 200 g/ha",10
same,"Plant response rating, Lambsquarter","lambsquarters; Rate 200 g/ha, POSTEMERGENCE",10
same,"Plant response rating, Corn","corn; POSTEMERGENCE, Rate 50 g/ha",7
same,"Plant response rating, Corn","corn; PREEMERGENCE, Rate 50 g/ha",0
same,"Plant response rating (0 to 10 scale), Corn","corn; PREEMERGENCE, Rate 200 g/ha",0
same,"Plant response rating, Corn","corn; Rate 200 g/ha, POSTEMERGENCE",9
same,"Plant response rating, Barley","barley; POSTEMERGENCE, Rate 50 g/ha",3
same,"Plant response rating, Barley","barley; PREEMERGENCE, Rate 50 g/ha",2
same,"Plant response rating (0 to 10 scale), Barley","barley; PREEMERGENCE, Rate 200 g/ha",0
same,"Plant response rating, Barley","barley; Rate 200 g/ha, POSTEMERGENCE",5
same,"Plant response rating, Rice","rice; POSTEMERGENCE, Rate 50 g/ha",3
same,"Plant response rating, Rice","rice; PREEMERGENCE, Rate 50 g/ha",0
same,"Plant response rating (0 to 10 scale), Rice","rice; PREEMERGENCE, Rate 200 g/ha",2
same,"Plant response rating, Rice","rice; Rate 200 g/ha, POSTEMERGENCE",6
same,"Plant response rating, Rape","rape; POSTEMERGENCE, Rate 50 g/ha",8
same,"Plant response rating, Rape","rape; PREEMERGENCE, Rate 50 g/ha",4
same,"Plant response rating (0 to 10 scale), Rape","rape; PREEMERGENCE, Rate 200 g/ha",9
same,"Plant response rating, Rape","rape; Rate 200 g/ha, POSTEMERGENCE",10
same,"Plant response rating, Velvetleaf","velvetleaf; POSTEMERGENCE, Rate 50 g/ha",10
same,"Plant response rating, Velvetleaf","velvetleaf; PREEMERGENCE, Rate 50 g/ha",10
same,"Plant response rating (0 to 10 scale), Velvetleaf","velvetleaf; PREEMERGENCE, Rate 200 g/ha",10
same,"Plant response rating, Velvetleaf","velvetleaf; Rate 200 g/ha, POSTEMERGENCE",10
same,"Plant response rating, Soybean","soybean; POSTEMERGENCE, Rate 50 g/ha",10
same,"Plant response rating, Soybean","soybean; PREEMERGENCE, Rate 50 g/ha",0
same,"Plant response rating (0 to 10 scale), Soybean","soybean; PREEMERGENCE, Rate 200 g/ha",1
same,"Plant response rating, Soybean","soybean; Rate 200 g/ha, POSTEMERGENCE",9
same,"Plant response rating, Sugar beet","sugar beet; POSTEMERGENCE, Rate 50 g/ha",10
same,"Plant response rating, Sugar beet","sugar beet; PREEMERGENCE, Rate 50 g/ha",9
same,"Plant response rating (0 to 10 scale), Sugar beet","sugar beet; PREEMERGENCE, Rate 200 g/ha",10
same,"Plant response rating, Sugar beet","sugar beet; Rate 200 g/ha, POSTEMERGENCE",10
same,"Plant response rating, Wild buckwheat","wild buckwheat; POSTEMERGENCE, Rate 50 g/ha",10
same,"Plant response rating, Wild buckwheat","wild buckwheat; PREEMERGENCE, Rate 50 g/ha",9
same,"Plant response rating (0 to 10 scale), Wild buckwheat","wild buckwheat; PREEMERGENCE, Rate 200 g/ha",10
same,"Plant response rating, Wild buckwheat","wild buckwheat; Rate 200 g/ha, POSTEMERGENCE",10
same,"Plant response rating, Bedstraw","bedstraw; POSTEMERGENCE, Rate 50 g/ha",6
same,"Plant response rating, Bedstraw","bedstraw; PREEMERGENCE, Rate 50 g/ha",2
same,"Plant response rating (0 to 10 scale), Bedstraw","bedstraw; PREEMERGENCE, Rate 200 g/ha",9
same,"Plant response rating, Bedstraw","bedstraw; Rate 200 g/ha, POSTEMERGENCE",9
same,"Plant response rating, Blackgrass","blackgrass; POSTEMERGENCE, Rate 50 g/ha",4
same,"Plant response rating, Blackgrass","blackgrass; PREEMERGENCE, Rate 50 g/ha",4
same,"Plant response rating (0 to 10 scale), Blackgrass","blackgrass; PREEMERGENCE, Rate 200 g/ha",7
same,"Plant response rating, Blackgrass","blackgrass; Rate 200 g/ha, POSTEMERGENCE",7
same,"Plant response rating, Wild oat","wild oat; POSTEMERGENCE, Rate 50 g/ha",3
same,"Plant response rating, Wild oat","wild oat; PREEMERGENCE, Rate 50 g/ha",3
same,"Plant response rating (0 to 10 scale), Wild oat","wild oat; PREEMERGENCE, Rate 200 g/ha",6
same,"Plant response rating, Wild oat","wild oat; Rate 200 g/ha, POSTEMERGENCE",5
same,"Plant response rating, Morningglory","morningglory; POSTEMERGENCE, Rate 50 g/ha",10
same,"Plant response rating, Morningglory","morningglory; PREEMERGENCE, Rate 50 g/ha",0
same,"Plant response rating (0 to 10 scale), Morningglory","morningglory; PREEMERGENCE, Rate 200 g/ha",10
same,"Plant response rating, Morningglory","morningglory; Rate 200 g/ha, POSTEMERGENCE",10
